Assay [1] concerns MOLT-4. Briefly: Cell viability assay (MTS) in MOLT-4 cells. Type of assay: cell-based. Particulars: Homo sapiens, MOLT-4. The protocol:
(§1) Acute lymphoblastic leukemia cells (MOLT-4 and RS4; 11) were incubated with increasing concentrations of Bcl-xL degraders for 48 h. Cell viability was measured by tetrazolium-based MTS assay.

For assay [2], the system named is RS4; 11. Briefly: Cell viability assay (MTS) in RS4; 11 cells. The assay is classed as cell-based. Particulars: Homo sapiens, RS4-11. How it is done:
as §1

The mark [3] stands for this setting: Table 2, 48 hr, MTS, read-out: Anti-Cancer Activity IC50 (48 hr) MOLT-4.
Where [4] appears, read: Table 5, 48 h, read-out: MOLT-4 48 h IC50.
Where [5] appears, read: Table 2, 48 hr, MTS, read-out: Anti-Cancer Activity IC50 (48 hr) RS4, 11.
Setting [6] is: Table 5, 48 h, read-out: RS4 48 h IC50.

Each structure is given as a SMILES string. Where two headings read alike, the source gives them in different places. A value given as a limit tells only on which side of the number the result lay.

Regarding `Cc1ncsc1-c1ccc([C@H](C)NC(=O)[C@@H]2C[C@@H](O)CN2C(=O)[C@@H](NC(=O)CCCCCCC(=O)N2CCN(CC3(C)CCC(c4ccc(Cl)cc4)=C(CN4CCN(c5ccc(C(=O)NS(=O)(=O)c6ccc(N[C@H](CCN7CCC(O)CC7)CSc7ccccc7)c([N+](=O)[O-])c6)cc5)CC4)C3)CC2)C(C)(C)C)cc1` (stereo partly drawn) [Compound 46, (2S,4R)-1-((2S)-2-(8-(4-((4′-chloro-6-((4-(4-(((4-(((R)-4-(4-hydroxypiperidin-1-yl)-1-(phenylthio)butan-2-yl)amino)-3-nitrophenyl)sulfonyl)carbamoyl)phenyl)piperazin-1-yl)methyl)-4-methyl-2,3,4,5-tetrahydro-[1,1′-biphenyl]-4-yl)methyl)piperazin-1-yl)-8-oxooctanamido)-3,3-dimethylbutanoyl)-4-hydroxy-N—((S)-1-(4-(4-methylthiazol-5-yl)phenyl)ethyl)pyrrolidine-2-carboxamide], the half-inhibitory concentration (IC50) in assay [1] (setting [3]) was 20 to 100 nM; in assay [1] (setting [4]) it was 55.9 nM; in assay [2] (setting [5]) it was < 20 nM; in assay [2] (setting [6]), 5.8 nM.

Turning to `Cc1ncsc1-c1ccc([C@H](C)NC(=O)[C@@H]2C[C@@H](O)CN2C(=O)[C@@H](NC(=O)CCCCCCC(=O)N2CCN(CC3(C)CCC(c4ccc(Cl)cc4)=C(CN4CCN(c5ccc(C(=O)NS(=O)(=O)c6ccc(N[C@H](CCN7CCC(CO)CC7)CSc7ccccc7)c([N+](=O)[O-])c6)cc5)CC4)C3)CC2)C(C)(C)C)cc1` (stereo partly drawn) [Compound 47, (2S,4R)-1-((2S)-2-(8-(4-((4′-chloro-6-((4-(4-(((4-(((R)-4-(4-(hydroxymethyl)piperidin-1-yl)-1-(phenylthio)butan-2-yl)amino)-3-nitrophenyl)sulfonyl)carbamoyl)phenyl)piperazin-1-yl)methyl)-4-methyl-2,3,4,5-tetrahydro-[1,1′-biphenyl]-4-yl)methyl)piperazin-1-yl)-8-oxooctanamido)-3,3-dimethylbutanoyl)-4-hydroxy-N—((S)-1-(4-(4-methylthiazol-5-yl)phenyl)ethyl)pyrrolidine-2-carboxamide], the IC50 in assay [1] (setting [3]) was 100 to 500 nM; in assay [2] (setting [5]), 20 to 100 nM.

Regarding `CC(=O)N1CCN(CC[C@H](CSc2ccccc2)Nc2ccc(S(=O)(=O)NC(=O)c3ccc(N4CCN(CC5=C(c6ccc(Cl)cc6)CCC(C)(CN6CCN(C(=O)CCCCCCC(=O)N[C@H](C(=O)N7C[C@H](O)C[C@H]7C(=O)N[C@@H](C)c7ccc(-c8scnc8C)cc7)C(C)(C)C)CC6)C5)CC4)cc3)cc2[N+](=O)[O-])CC1` (stereo partly drawn) [Compound 48, (2S,4R)-1-((2S)-2-(8-(4-((6-((4-(4-(((4-(((R)-4-(4-acetylpiperazin-1-yl)-1-(phenylthio)butan-2-yl)amino)-3-nitrophenyl)sulfonyl)carbamoyl)phenyl)piperazin-1-yl)methyl)-4′-chloro-4-methyl-2,3,4,5-tetrahydro-[1,1′-biphenyl]-4-yl)methyl)piperazin-1-yl)-8-oxooctanamido)-3,3-dimethylbutanoyl)-4-hydroxy-N—((S)-1-(4-(4-methylthiazol-5-yl)phenyl)ethyl)pyrrolidine-2-carboxamide], the values for the half-inhibitory concentration (IC50) in assay [1] (setting [3]) and in assay [2] (setting [5]) were 20 to 100 nM and < 20 nM, respectively.

Consider `Cc1ncsc1-c1ccc([C@H](C)NC(=O)[C@@H]2C[C@@H](O)CN2C(=O)[C@@H](NC(=O)CCCCCCC(=O)N2CCN(CC3(C)CCC(c4ccc(Cl)cc4)=C(CN4CCN(c5ccc(C(=O)NS(=O)(=O)c6ccc(N[C@H](CCO)CSc7ccccc7)c([N+](=O)[O-])c6)cc5)CC4)C3)CC2)C(C)(C)C)cc1` (stereo partly drawn) [Compound 49, (2S,4R)-1-((2S)-2-(8-(4-((4′-chloro-6-((4-(4-(((4-(((R)-4-hydroxy-1-(phenylthio)butan-2-yl)amino)-3-nitrophenyl)sulfonyl)carbamoyl)phenyl)piperazin-1-yl)methyl)-4-methyl-2,3,4,5-tetrahydro-[1,1′-biphenyl]-4-yl)methyl)piperazin-1-yl)-8-oxooctanamido)-3,3-dimethylbutanoyl)-4-hydroxy-N—((S)-1-(4-(4-methylthiazol-5-yl)phenyl)ethyl)pyrrolidine-2-carboxamide], for which the 50% inhibitory concentration (IC50) in assay [1] (setting [3]) was 500 to 10000 nM; in assay [2] (setting [5]) it was 20 to 100 nM.

Regarding `COCC[C@H](CSc1ccccc1)Nc1ccc(S(=O)(=O)NC(=O)c2ccc(N3CCN(CC4=C(c5ccc(Cl)cc5)CCC(C)(CN5CCN(C(=O)CCCCCCC(=O)N[C@H](C(=O)N6C[C@H](O)C[C@H]6C(=O)N[C@@H](C)c6ccc(-c7scnc7C)cc6)C(C)(C)C)CC5)C4)CC3)cc2)cc1[N+](=O)[O-]` (stereo partly drawn) [Compound 50, (2S,4R)-1-((2S)-2-(8-(4-((4′-chloro-6-((4-(4-(((4-(((R)-4-methoxy-1-(phenylthio)butan-2-yl)amino)-3-nitrophenyl)sulfonyl)carbamoyl)phenyl)piperazin-1-yl)methyl)-4-methyl-2,3,4,5-tetrahydro-[1,1′-biphenyl]-4-yl)methyl)piperazin-1-yl)-8-oxooctanamido)-3,3-dimethylbutanoyl)-4-hydroxy-N—((S)-1-(4-(4-methylthiazol-5-yl)phenyl)ethyl)pyrrolidine-2-carboxamide], the IC50 in assay [1] (setting [3]) fell in the range of 500 to 10000 nM; in assay [2] (setting [5]), 20 to 100 nM.

In the case of `Cc1ncsc1-c1ccc([C@H](C)NC(=O)[C@@H]2C[C@@H](O)CN2C(=O)[C@@H](NC(=O)CCCCCCC(=O)N2CCN(CC3(C)CCC(c4ccc(Cl)cc4)=C(CN4CCN(c5ccc(C(=O)NS(=O)(=O)c6ccc(N[C@H](CCN7C[C@H]8C[C@@H]7CO8)CSc7ccccc7)c([N+](=O)[O-])c6)cc5)CC4)C3)CC2)C(C)(C)C)cc1` (stereo partly drawn) [Compound 52, (2S,4R)-1-((2S)-2-(8-(4-((6-((4-(4-(((4-(((R)-4-((1R,4R)-2-oxa-5-azabicyclo[2.2.1]heptan-5-yl)-1-(phenylthio)butan-2-yl)amino)-3-nitrophenyl)sulfonyl)carbamoyl)phenyl)piperazin-1-yl)methyl)-4′-chloro-4-methyl-2,3,4,5-tetrahydro-[1,1′-biphenyl]-4-yl)methyl)piperazin-1-yl)-8-oxooctanamido)-3,3-dimethylbutanoyl)-4-hydroxy-N—((S)-1-(4-(4-methylthiazol-5-yl)phenyl)ethyl)pyrrolidine-2-carboxamide], the concentration for half-maximal inhibition (IC50) was < 20 nM in assay [1] (setting [3]), 15.2 nM in assay [1] (setting [4]), < 20 nM in assay [2] (setting [5]) and 2.8 nM in assay [2] (setting [6]).

`Cc1ncsc1-c1ccc([C@H](C)NC(=O)[C@@H]2C[C@@H](O)CN2C(=O)[C@@H](NC(=O)CCCCCCC(=O)N2CCN(C[C@]3(C)CCC(c4ccc(Cl)cc4)=C(CN4CCN(c5ccc(C(=O)NS(=O)(=O)c6ccc(N[C@H](CCN7CC8CCC7C8)CSc7ccccc7)c([N+](=O)[O-])c6)cc5)CC4)C3)CC2)C(C)(C)C)cc1` (stereo partly drawn) [Compound 53, (2S,4R)-1-((2S)-2-(8-(4-(((4R)-6-((4-(4-(((4-(((2R)-4-(2-azabicyclo[2.2.1]heptan-2-yl)-1-(phenylthio)butan-2-yl)amino)-3-nitrophenyl)sulfonyl)carbamoyl)phenyl)piperazin-1-yl)methyl)-4′-chloro-4-methyl-2,3,4,5-tetrahydro-[1,1′-biphenyl]-4-yl)methyl)piperazin-1-yl)-8-oxooctanamido)-3,3-dimethylbutanoyl)-4-hydroxy-N—((S)-1-(4-(4-methylthiazol-5-yl)phenyl)ethyl)pyrrolidine-2-carboxamide]: the half-maximal inhibitory concentration (IC50) was 20 to 100 nM in assay [1] (setting [3]) and < 20 nM in assay [2] (setting [5]).

Broadly, the IC50 is the concentration that gives 50% inhibition.
